According to PMC7046553, “Backbone Cyclization and Dimerization of LL-37-Derived Peptides Enhance Antimicrobial Activity and Proteolytic Stability” (Frontiers in Microbiology, 2020):
Values after ≈ are worked out from the molar mass of the structure shown. Read-outs that look alike come from different tables or passages of the source. Where a SMILES comes first, the peptide text is derived from it. Where no end group is shown, it is not given here.

Assays:
[1] = system: Candida albicans ATCC 90028
Method: (§1) The three bacterial strains: Escherichia coli ATCC 25922, Pseudomonas aeruginosa ATCC 27853 Staphylococcus aureus ATCC 29213 as well as the fungal strain Candida albicans ATCC 90028 derived from clinical wound infections were obtained from the Department of Clinical Bacteriology at Lund University Hospital.
(§2) Antimicrobial activities of the peptides were evaluated using the two-step microdilution assay ([Strömstedt et al., 2017]), which is designed for testing AMPs without activity-inhibiting components. Briefly, the microbial suspension was washed twice with 10 mM Tris buffer (set to pH 7.4 at 37°C). 96-well plates (U-shaped, untreated polystyrene) were prepared with peptide 2-fold serial dilutions in Tris buffer. The culture density was quantified by OD600, diluted in Tris buffer and 50,000 cells aliquoted to each well in the 96-well plate to a final 100 μl volume. After 5 h of aerobic incubation at 37°C, 5 μl of 20% TSB medium was added to each well (resulting in 1% TSB) and the plates were re-incubated. Growth-inhibition was monitored when controls produced pellet sizes of 2 mm in diameter (close to growth saturation), which equates to 5, 8, 10, and 12 h for E. coli, S. aureus, P. aeruginosa, and C. albicans, respectively. […] The MIC-values in Table 1, are medians from triplicate experiments, while the data presented in the Figure 2 are the same values relative to that of KR-12.

[2] = system: Escherichia coli ATCC 25922; details: ATCC 25922, 5 h
Method: as §1, §2

[3] = system: Pseudomonas aeruginosa ATCC 27853
Method: as §1, §2

[4] = system: Staphylococcus aureus ATCC 29213; details: ATCC 29213, 5 h
Method: as §1, §2

in vitro = details: 25% human serum
Method: Proteolytic stability of the peptides were determined in diluted human serum (1:4 v/v, serum:PBS) at 37°C followed by LC-MS analysis. To examine the intact peptide after serum incubation, aliquots of each incubation mixture were taken at each time point for LC-MS analysis (Figure 5).
Peptide stability was assayed in diluted human serum. 25% human serum was centrifuged at 13,000 rpm for 10 min to remove lipids and the supernatant was collected and incubated at 37°C for 15 min. […] Eighty μl of 6 M urea was added and incubated at 4°C for a further 10 min. 80 μl of 20% TCA was added and incubated at 4°C for a further 10 min. The samples were centrifuged at 13000 g for 10 min and the supernatant was analyzed by LC-MS.

[5] = median of triplicate experiments

Compound | MIC C. albicans ([1]; ATCC 90028, 5 h) [µM] | MIC E. coli [2] [µM] | MIC P. aeruginosa ([3]; ATCC 27853, 5 h) [µM] | MIC S. aureus [4] [µM] | also measured
CC[C@H](C)[C@@H]1NC(=O)[C@H](CCCCN)NC(=O)[C@H](CC(=O)O)NC(=O)[C@H](Cc2ccccc2)NC(=O)[C@H](CC(C)C)NC(=O)[C@H](CCCNC(=N)N)NC(=O)CNC(=O)CNC(=O)[C@H](CS)NC(=O)CNC(=O)[C@H](CCCCN)NC(=O)[C@H](CCCNC(=N)N)NC(=O)[C@H]([C@@H](C)CC)NC(=O)[C@H](C(C)C)NC(=O)[C@H](CCC(N)=O)NC(=O)[C@H](CCCNC(=N)N)NC(=O)[C@H]([C@@H](C)CC)NC(=O)[C@H](CCCCN)NC(=O)[C@H](CC(=O)O)NC(=O)[C@H](Cc2ccccc2)NC(=O)[C@H](CC(C)C)NC(=O)[C@H](CCCNC(=N)N)NC(=O)CNC(=O)CNC(=O)[C@H](C)NC(=O)CNC(=O)[C@H](CCCCN)NC(=O)[C@H](CCCNC(=N)N)NC(=O)[C@H]([C@@H](C)CC)NC(=O)[C@H](C(C)C)NC(=O)[C@H](CCC(N)=O)NC(=O)[C@H](CCCNC(=N)N)NC1=O [Peptide 2retro-cd4] (cyclo(CGGRLFDKIRQVIRKGAGGRLFDKIRQVIRKG)) | 2.5 (≈ 9.06 µg/mL) | 0.625 (≈ 2.27 µg/mL) | 1.25 (≈ 4.53 µg/mL) | 1.25 (≈ 4.53 µg/mL) | –
CC(C)C[C@@H]1NC(=O)CNC(=O)[C@H](CC(N)=O)NC(=O)[C@H](CCCNC(=N)N)NC(=O)[C@H]([C@@H](C)O)NC(=O)[C@@H]2CSSC[C@@H]3NC(=O)[C@H]([C@@H](C)O)NC(=O)CNC(=O)CNC(=O)[C@H](C(C)C)NC(=O)[C@@H]4CSSC[C@H](NC(=O)[C@H]([C@@H](C)O)NC(=O)[C@H](CSSC[C@H](NC(=O)[C@H](C(C)C)NC(=O)[C@@H]5CCCN5C1=O)C(=O)NCC(=O)N[C@@H](CCC(=O)O)C(=O)N[C@@H]([C@@H](C)O)C(=O)N4)NC(=O)CNC(=O)[C@@H]1CCCN1C(=O)[C@H]([C@@H](C)O)NC(=O)[C@H](CC(N)=O)NC3=O)C(=O)N[C@@H](CO)C(=O)N[C@@H](Cc1c[nH]c3ccccc13)C(=O)N1CCC[C@H]1C(=O)N[C@@H](C(C)C)C(=O)N2 [kalata B1, reference compound] | – | – | – | – | remaining at 24 h (in vitro; human): 80%
CGGKRIVQRIKDFLRGAGGRLFDKIRQVIRKG-NH2 (C-terminus assumed) [retro-ld4*] | 0.625 | 0.625 | 0.625 | 1.25 | fold lower MIC compared to KR-12, C. albicans [1]: 16 fold
RLFDKIRQVIRK [retro-KR-12] | 5 | 5 | 10 | 10 | detection in serum after 20 min (in vitro; 37°C): could not be detected; remaining at 10 min (in vitro; human): ~20%
CC[C@H](C)[C@@H]1NC(=O)[C@H](CCCCN)NC(=O)[C@H](CC(=O)O)NC(=O)[C@H](Cc2ccccc2)NC(=O)[C@H](CC(C)C)NC(=O)[C@H](CCCNC(=N)N)NC(=O)[C@H](C)NC(=O)CNC(=O)[C@H](CCCNC(=N)N)NC(=O)[C@H](CC(C)C)NC(=O)[C@H](Cc2ccccc2)NC(=O)[C@H](CC(=O)O)NC(=O)[C@H](CCCCN)NC(=O)[C@H]([C@@H](C)CC)NC(=O)[C@H](CCCNC(=N)N)NC(=O)[C@H](CCC(N)=O)NC(=O)[C@H](C(C)C)NC(=O)[C@H]([C@@H](C)CC)NC(=O)[C@H](CCCNC(=N)N)NC(=O)[C@H](CCCCN)NC(=O)[C@H](C)NC(=O)CNC(=O)[C@H](CCCCN)NC(=O)[C@H](CCCNC(=N)N)NC(=O)[C@H]([C@@H](C)CC)NC(=O)[C@H](C(C)C)NC(=O)[C@H](CCC(N)=O)NC(=O)[C@H](CCCNC(=N)N)NC1=O [retro-cd2] (cyclo(AKRIVQRIKDFLRGARLFDKIRQVIRKG)) | 2.5 (≈ 8.41 µg/mL) | 0.625 (≈ 2.1 µg/mL) | 1.25 (≈ 4.21 µg/mL) | 1.25 (≈ 4.21 µg/mL) | –
CC[C@H](C)[C@@H]1NC(=O)[C@H](CCCCN)NC(=O)[C@H](CC(=O)O)NC(=O)[C@H](Cc2ccccc2)NC(=O)[C@H](CC(C)C)NC(=O)[C@H](CCCNC(=N)N)NC(=O)CNC(=O)[C@H](C)NC(=O)CNC(=O)[C@H](CCCNC(=N)N)NC(=O)[C@H](CC(C)C)NC(=O)[C@H](Cc2ccccc2)NC(=O)[C@H](CC(=O)O)NC(=O)[C@H](CCCCN)NC(=O)[C@H]([C@@H](C)CC)NC(=O)[C@H](CCCNC(=N)N)NC(=O)[C@H](CCC(N)=O)NC(=O)[C@H](C(C)C)NC(=O)[C@H]([C@@H](C)CC)NC(=O)[C@H](CCCNC(=N)N)NC(=O)[C@H](CCCCN)NC(=O)CNC(=O)[C@H](C)NC(=O)CNC(=O)[C@H](CCCCN)NC(=O)[C@H](CCCNC(=N)N)NC(=O)[C@H]([C@@H](C)CC)NC(=O)[C@H](C(C)C)NC(=O)[C@H](CCC(N)=O)NC(=O)[C@H](CCCNC(=N)N)NC1=O [retro-cd3] (cyclo(AGKRIVQRIKDFLRGAGRLFDKIRQVIRKG)) | 2.5 (≈ 8.7 µg/mL) | 1.25 (≈ 4.35 µg/mL) | 1.25 (≈ 4.35 µg/mL) | 1.25 (≈ 4.35 µg/mL) | –
CC[C@H](C)[C@@H]1NC(=O)[C@H](CCCNC(=N)N)NC(=O)[C@H](CCC(N)=O)NC(=O)[C@H](C(C)C)NC(=O)[C@H]([C@@H](C)CC)NC(=O)[C@H](CCCNC(=N)N)NC(=O)[C@H](CCCCN)NC(=O)[C@H](C)NC(=O)CNC(=O)[C@H](CCCNC(=N)N)NC(=O)[C@H](CC(C)C)NC(=O)[C@H](Cc2ccccc2)NC(=O)[C@H](CC(=O)O)NC(=O)[C@H](CCCCN)NC(=O)[C@H]([C@@H](C)CC)NC(=O)[C@H](CCCNC(=N)N)NC(=O)[C@H](CCC(N)=O)NC(=O)[C@H](C(C)C)NC(=O)[C@H]([C@@H](C)CC)NC(=O)[C@H](CCCNC(=N)N)NC(=O)[C@H](CCCCN)NC(=O)[C@H](C)NC(=O)CNC(=O)[C@H](CCCNC(=N)N)NC(=O)[C@H](CC(C)C)NC(=O)[C@H](Cc2ccccc2)NC(=O)[C@H](CC(=O)O)NC(=O)[C@H](CCCCN)NC1=O [cd2] (cyclo(AKRIVQRIKDFLRGAKRIVQRIKDFLRG)) | – | 0.625 (≈ 2.1 µg/mL) | 0.625 (≈ 2.1 µg/mL) | 1.25 (≈ 4.21 µg/mL) | remaining at 6 h (in vitro; human): ~30%
CC[C@H](C)[C@@H]1NC(=O)[C@H](CCCCN)NC(=O)[C@H](CC(=O)O)NC(=O)[C@H](Cc2ccccc2)NC(=O)[C@H](CC(C)C)NC(=O)[C@H](CCCNC(=N)N)NC(=O)CNC(=O)CNC(=O)[C@H](C)NC(=O)CNC(=O)[C@H](CCCNC(=N)N)NC(=O)[C@H](CC(C)C)NC(=O)[C@H](Cc2ccccc2)NC(=O)[C@H](CC(=O)O)NC(=O)[C@H](CCCCN)NC(=O)[C@H]([C@@H](C)CC)NC(=O)[C@H](CCCNC(=N)N)NC(=O)[C@H](CCC(N)=O)NC(=O)[C@H](C(C)C)NC(=O)[C@H]([C@@H](C)CC)NC(=O)[C@H](CCCNC(=N)N)NC(=O)[C@H](CCCCN)NC(=O)CNC(=O)CNC(=O)[C@H](C)NC(=O)CNC(=O)[C@H](CCCCN)NC(=O)[C@H](CCCNC(=N)N)NC(=O)[C@H]([C@@H](C)CC)NC(=O)[C@H](C(C)C)NC(=O)[C@H](CCC(N)=O)NC(=O)[C@H](CCCNC(=N)N)NC1=O [retro-cd4] (cyclo(AGGKRIVQRIKDFLRGAGGRLFDKIRQVIRKG)) | – | – | – | – | MIC C. albicans [1, 5]: 2.5 µM (≈ 8.98 µg/mL); MIC P. aeruginosa [3, 5]: 0.625 µM (≈ 2.25 µg/mL)
CC[C@H](C)[C@@H]1NC(=O)[C@H](CCCNC(=N)N)NC(=O)[C@H](CCC(N)=O)NC(=O)[C@H](C(C)C)NC(=O)[C@H]([C@@H](C)CC)NC(=O)[C@H](CCCNC(=N)N)NC(=O)[C@H](CCCCN)NC(=O)CNC(=O)[C@H](C)NC(=O)CNC(=O)[C@H](CCCNC(=N)N)NC(=O)[C@H](CC(C)C)NC(=O)[C@H](Cc2ccccc2)NC(=O)[C@H](CC(=O)O)NC(=O)[C@H](CCCCN)NC(=O)[C@H]([C@@H](C)CC)NC(=O)[C@H](CCCNC(=N)N)NC(=O)[C@H](CCC(N)=O)NC(=O)[C@H](C(C)C)NC(=O)[C@H]([C@@H](C)CC)NC(=O)[C@H](CCCNC(=N)N)NC(=O)[C@H](CCCCN)NC(=O)CNC(=O)[C@H](C)NC(=O)CNC(=O)[C@H](CCCNC(=N)N)NC(=O)[C@H](CC(C)C)NC(=O)[C@H](Cc2ccccc2)NC(=O)[C@H](CC(=O)O)NC(=O)[C@H](CCCCN)NC1=O [cd3] (cyclo(AGKRIVQRIKDFLRGAGKRIVQRIKDFLRG)) | 1.25 (≈ 4.35 µg/mL) | 0.625 (≈ 2.17 µg/mL) | 0.625 (≈ 2.17 µg/mL) | 1.25 (≈ 4.35 µg/mL) | –
